Assay results reported in ChEMBL document CHEMBL5154806, “Synthesis and Profiling of Highly Selective Inhibitors of Methyltransferase DOT1L Based on Carbocyclic C-Nucleosides” (J Med Chem, 2022).
Active and inactive are the calls of the source. No cut-off for these calls is given here.

Assays:
[1] = Tmax in fasted BALB/c mouse at 5 mg/kg, iv administered upto 600 mins by HPLC-MS/MS analysis; format: ADME, organism-based; conditions: in vivo
[2] = Volume of distribution in fasted BALB/c mouse at 5 mg/kg, iv administered upto 600 mins by HPLC-MS/MS analysis; format: ADME, organism-based; conditions: in vivo
[3] = biological target: T1, Histone-lysine N-methyltransferase, H3 lysine-79 specific (Homo sapiens, UniProt Q8TEK3); assay: Inhibition of DOT1L in human SU-DHL-4 cells assessed as decrease in H3K79 methylation at 1 to 10 uM using histone H3 as substrate incubated for 3 days by immunoblotting assay; format: cell-based; conditions: dose 1-10 µM, time 3.0 day, DDE = dose-dependent effect
Target sequence in this assay (Q8TEK3 whole entry, looked up): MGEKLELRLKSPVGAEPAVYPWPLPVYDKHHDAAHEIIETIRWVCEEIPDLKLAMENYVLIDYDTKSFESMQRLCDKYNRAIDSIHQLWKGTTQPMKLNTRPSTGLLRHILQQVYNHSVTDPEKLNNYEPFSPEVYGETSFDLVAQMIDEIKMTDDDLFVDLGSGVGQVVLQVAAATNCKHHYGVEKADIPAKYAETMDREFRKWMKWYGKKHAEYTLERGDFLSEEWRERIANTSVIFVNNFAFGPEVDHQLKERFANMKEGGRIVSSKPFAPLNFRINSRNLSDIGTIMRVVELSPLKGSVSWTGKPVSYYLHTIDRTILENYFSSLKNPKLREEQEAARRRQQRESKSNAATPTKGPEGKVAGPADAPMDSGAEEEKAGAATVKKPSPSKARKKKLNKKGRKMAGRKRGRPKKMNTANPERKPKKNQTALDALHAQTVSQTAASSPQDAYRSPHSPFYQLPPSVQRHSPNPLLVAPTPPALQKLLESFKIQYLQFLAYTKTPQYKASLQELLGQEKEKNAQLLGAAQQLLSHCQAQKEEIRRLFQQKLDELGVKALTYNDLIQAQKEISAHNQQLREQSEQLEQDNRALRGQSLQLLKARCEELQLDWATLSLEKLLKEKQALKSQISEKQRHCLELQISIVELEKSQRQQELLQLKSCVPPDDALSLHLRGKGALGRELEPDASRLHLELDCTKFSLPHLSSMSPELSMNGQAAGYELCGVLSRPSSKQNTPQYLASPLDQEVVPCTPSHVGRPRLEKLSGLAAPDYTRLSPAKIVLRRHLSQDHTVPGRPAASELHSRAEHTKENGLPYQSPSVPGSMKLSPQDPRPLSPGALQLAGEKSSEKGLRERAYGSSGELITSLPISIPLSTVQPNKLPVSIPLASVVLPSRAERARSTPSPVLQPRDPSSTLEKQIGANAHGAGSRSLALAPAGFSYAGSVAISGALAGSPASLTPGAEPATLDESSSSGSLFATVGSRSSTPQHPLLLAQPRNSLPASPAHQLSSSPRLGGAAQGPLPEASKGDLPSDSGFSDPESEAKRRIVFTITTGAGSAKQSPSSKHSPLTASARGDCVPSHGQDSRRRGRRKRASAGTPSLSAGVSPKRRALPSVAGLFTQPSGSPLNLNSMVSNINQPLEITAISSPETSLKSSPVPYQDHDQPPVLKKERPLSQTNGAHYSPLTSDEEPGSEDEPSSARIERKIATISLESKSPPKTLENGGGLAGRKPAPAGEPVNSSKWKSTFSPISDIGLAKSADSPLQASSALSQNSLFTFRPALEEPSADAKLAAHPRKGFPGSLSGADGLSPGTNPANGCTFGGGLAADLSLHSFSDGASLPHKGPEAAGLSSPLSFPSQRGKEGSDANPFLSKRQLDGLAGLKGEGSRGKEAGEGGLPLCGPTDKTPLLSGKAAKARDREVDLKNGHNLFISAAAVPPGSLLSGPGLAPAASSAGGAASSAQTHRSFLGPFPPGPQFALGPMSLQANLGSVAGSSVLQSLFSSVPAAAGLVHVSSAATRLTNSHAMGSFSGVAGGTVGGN

[4] = AUC (0 to t) in fasted BALB/c mouse at 20 mg/kg, po administered upto 600 mins by HPLC-MS/MS analysis; format: ADME, organism-based; design: dose 20 mg/kg, time < 600 min, route po; conditions: in vivo
[5] = AUC (0 to t) in fasted BALB/c mouse at 5 mg/kg, iv administered upto 600 mins by HPLC-MS/MS analysis; format: ADME, organism-based; design: time < 600 min, dose 5 mg/kg, route iv; conditions: in vivo
MOLM-13 [6] = assay: Cytotoxicity against human MOLM-13 cells assessed as metabolic activity at 1 to 40 uM incubated for 5 to 15 days by WST-1 assay; format: functional, cell-based; conditions: dose 1-40 µM, time 5-15 day
[7] = biological target: T1, Histone-lysine N-methyltransferase, H3 lysine-79 specific; assay: Inhibition of DOT1L in human SU-DHL-4 cells assessed as decrease in H3K79 methylation at 1 to 10 uM using histone H3 as substrate incubated for 5 days by immunoblotting assay; format: cell-based; conditions: dose 1-10 µM, time 5.0 day, DDE = dose-dependent effect
Target sequence in this assay (Q8TEK3 whole entry, looked up): as above

[8] = Half life in fasted BALB/c mouse at 5 mg/kg, iv administered upto 600 mins by HPLC-MS/MS analysis; format: ADME, organism-based; conditions: in vivo, iv, 5 mg/kg, 10 h
[9] = AUC (0 to infinity) in fasted BALB/c mouse at 5 mg/kg, iv administered upto 600 mins by HPLC-MS/MS analysis; format: ADME, organism-based; design: dose 5 mg/kg, time < 600 min, route iv; conditions: in vivo
[10] = biological target: T1, Histone-lysine N-methyltransferase, H3 lysine-79 specific; assay: Inhibition of DOT1L in human MOLM-13 cells assessed as decrease in H3K79 methylation at 1 to 10 uM using histone H3 as substrate incubated for 3 days by immunoblotting assay; format: cell-based; conditions: dose 1-10 µM, time 3.0 day, DDE = dose-dependent effect
Target sequence in this assay (Q8TEK3 whole entry, looked up): as above

[11] = Clearance in fasted BALB/c mouse at 5 mg/kg, iv administered upto 600 mins by HPLC-MS/MS analysis; format: ADME, organism-based; conditions: in vivo
[12] = Acute toxicity in BALB/c mouse assessed as respiratory failure at 5 mg/kg,iv measured after 6 to 7 mins; format: organism-based; conditions: in vivo, time 6-7 min
[13] = Acute toxicity in BALB/c mouse assessed as death at 10 to 20 mg/kg,iv; format: organism-based; conditions: in vivo, dose 10-20 mg/kg
OCI-AML-3 [14] = assay: Cytotoxicity against human OCI-AML-3 cells assessed as reduction of cell viability at 1 to 40 uM incubated for 5 to 15 days by DiOC6/ propidium staining based flow cytometry analysis; format: functional; conditions: dose 1-40 µM, time 5-15 day
OCI-AML-3 [15] = assay: Cytotoxicity against human OCI-AML-3 cells assessed as reduction of cell viability at 1 to 40 uM incubated for 5 to 15 days by WST-1 assay; format: functional, cell-based; conditions: dose 1-40 µM, time 5-15 day
[16] = biological target: T1, Histone-lysine N-methyltransferase, H3 lysine-79 specific; assay: Inhibition of DOT1L in human OCI-AML5 cells assessed as decrease in H3K79 methylation at 1 to 10 uM using histone H3 as substrate incubated for 5 days by immunoblotting assay; format: cell-based; conditions: dose 1-10 µM, time 5.0 day, DDE = dose-dependent effect
Target sequence in this assay (Q8TEK3 whole entry, looked up): as above

[17] = biological target: T1, Histone-lysine N-methyltransferase, H3 lysine-79 specific; assay: Inhibition of DOT1L in human MOLM-13 cells assessed as decrease in H3K79 methylation at 1 to 10 uM using histone H3 as substrate incubated for 5 days by immunoblotting assay; format: cell-based; conditions: dose 1-10 µM, time 5.0 day, DDE = dose-dependent effect
Target sequence in this assay (Q8TEK3 whole entry, looked up): as above

[18] = Acute toxicity in BALB/c mouse assessed as mild tremor at 5 mg/kg,iv measured after 6 to 7 mins; format: organism-based; conditions: in vivo, time 6-7 min
[19] = Cmax in fasted BALB/c mouse at 5 mg/kg, iv administered upto 600 mins by HPLC-MS/MS analysis; format: ADME, organism-based; design: time < 600 min, dose 5 mg/kg, route iv; conditions: in vivo
[20] = biological target: T1, Histone-lysine N-methyltransferase, H3 lysine-79 specific; assay: Inhibition of DOT1L in human OCI-AML5 cells assessed as decrease in H3K79 methylation at 1 to 10 uM using histone H3 as substrate incubated for 3 days by immunoblotting assay; format: cell-based; conditions: dose 1-10 µM, time 3.0 day, DDE = dose-dependent effect
Target sequence in this assay (Q8TEK3 whole entry, looked up): as above

[21] = Tmax in fasted BALB/c mouse at 20 mg/kg, po administered upto 600 mins by HPLC-MS/MS analysis; format: ADME, organism-based; conditions: in vivo
[22] = Acute toxicity in BALB/c mouse at 10 to 20 mg/kg,iv; format: organism-based; conditions: in vivo, dose 10-20 mg/kg
MOLM-13 [23] = assay: Cytotoxicity against human MOLM-13 cells assessed as reduction of cell viability at 1 to 40 uM incubated for 5 to 15 days by DiOC6/ propidium staining based flow cytometry analysis; format: functional; conditions: dose 1-40 µM, time 5-15 day
[24] = Elimination rate constant in fasted BALB/c mouse at 5 mg/kg, iv administered upto 600 mins by HPLC-MS/MS analysis; format: ADME, organism-based; conditions: in vivo, iv, 5 mg/kg, 10 h
[25] = Cmax in fasted BALB/c mouse at 20 mg/kg, po administered upto 600 mins by HPLC-MS/MS analysis; format: ADME, organism-based; design: time < 600 min, dose 20 mg/kg, route po; conditions: in vivo
[26] = biological target: T1, Histone-lysine N-methyltransferase, H3 lysine-79 specific; assay: Inhibition of human DOT1L by hotspot PMT activity assay
Target sequence in this assay (Q8TEK3 whole entry): as the sequence (Q8TEK3 whole entry, looked up) above

[27] = Elimination rate constant in fasted BALB/c mouse at 20 mg/kg, iv administered upto 600 mins by HPLC-MS/MS analysis; format: ADME, organism-based; conditions: in vivo
[28] = AUC (0 to t) in fasted BALB/c mouse at 20 mg/kg, iv administered upto 600 mins by HPLC-MS/MS analysis; format: ADME, organism-based; design: dose 20 mg/kg, time < 600 min, route iv; conditions: in vivo
[29] = Tmax in fasted BALB/c mouse at 20 mg/kg, iv administered upto 600 mins by HPLC-MS/MS analysis; format: ADME, organism-based; conditions: in vivo
[30] = Bioavailability in fasted BALB/c mouse at 20 mg/kg, iv administered upto 600 mins by HPLC-MS/MS analysis; format: ADME, organism-based; conditions: in vivo
[31] = Half life in fasted BALB/c mouse at 20 mg/kg, iv administered upto 600 mins by HPLC-MS/MS analysis; format: ADME, organism-based; conditions: in vivo
[32] = Clearance in fasted BALB/c mouse at 20 mg/kg, iv administered upto 600 mins by HPLC-MS/MS analysis; format: ADME, organism-based; conditions: in vivo
[33] = AUC (0 to infinity) in fasted BALB/c mouse at 20 mg/kg, iv administered upto 600 mins by HPLC-MS/MS analysis; format: ADME, organism-based; design: dose 20 mg/kg, time < 600 min, route iv; conditions: in vivo
[34] = AUC (0 to infinity) in fasted BALB/c mouse at 20 mg/kg, po administered upto 600 mins by HPLC-MS/MS analysis; format: ADME, organism-based; design: dose 20 mg/kg, time < 600 min, route po; conditions: in vivo
[35] = Volume of distribution in fasted BALB/c mouse at 20 mg/kg, iv administered upto 600 mins by HPLC-MS/MS analysis; format: ADME, organism-based; conditions: in vivo
[36] = Cmax in fasted BALB/c mouse at 20 mg/kg, iv administered upto 600 mins by HPLC-MS/MS analysis; format: ADME, organism-based; design: time < 600 min, dose 20 mg/kg, route iv; conditions: in vivo
[37] = Elimination rate constant in fasted BALB/c mouse at 20 mg/kg, po administered upto 600 mins by HPLC-MS/MS analysis; format: ADME, organism-based; conditions: in vivo
[38] = Half life in fasted BALB/c mouse at 20 mg/kg, po administered upto 600 mins by HPLC-MS/MS analysis; format: ADME, organism-based; conditions: in vivo
[39] = biological target: T1, Histone-lysine N-methyltransferase, H3 lysine-79 specific; assay: Binding affinity to human DOT1L assessed as binding free energy difference

For `CC(C)N(C[C@H]1O[C@@H](n2cnc3c(N)ncnc32)[C@H](O)[C@@H]1O)[C@H]1C[C@@H](CCc2nc3cc(C(C)(C)C)ccc3[nH]2)C1` [PINOMETOSTAT], the Tmax [1] was 5 min, the Vd [2] was 1.07 L/kg and the Activity [3] was “Dde”. For the same compound, the AUC(0-t) at 10 h [4] was 0.662 ng·h/mL, the AUC(0-t) at 10 h [5] was 4830 ng·h/mL and the Activity (MOLM-13 [6]) was “Active”. The Activity [7] was “Dde”, the t1/2 [8] was 43.2 min and the AUC(0-inf) [9] was 4870 ng·h/mL. For the same compound, the Activity [10] was “Dde”, the clearance [11] was 17.1 mL/min/kg and the Activity [12] was “Toxic”. For the same compound, the Activity [13] was “Toxic”, the Activity (OCI-AML-3 [14]) was “Active” and the Activity (OCI-AML-3 [15]) was “Active”. For the same compound, the Activity [16] was “Dde”, the Activity [17] was “Dde” and the Activity [18] was “Toxic”. For the same compound, the Cmax [19] was 13900 ng/mL, the Activity [20] was “Dde” and the Tmax [21] was 5 min. The Activity [22] was “Toxic”, the Activity (MOLM-13 [23]) was “Active” and the Kel [24] was 0.00161 min⁻¹. It also gave a Cmax [25] of 15.9 ng/mL.
`CN(CCCNC(=O)Nc1ccc(C(C)(C)C)cc1)C[C@H]1C[C@@](O)(c2ccc3c(N)ncnn23)[C@H](O)[C@@H]1O` gave an IC50 [26] greater than 10 µM.
`CC(C)N(CCCNC(=O)Nc1ccc(C(C)(C)C)cc1)C[C@H]1C[C@@H](c2ccc3c(N)ncnn23)[C@H](O)[C@@H]1O` gave an IC50 [26] of 0.292 µM.
Compound `CC(C)NC[C@H]1C[C@@H](c2ccc3c(N)ncnn23)[C@H](O)[C@@H]1O` has a k el at 10 h [27] of 0.0001 s⁻¹, an AUC(0-t) at 10 h [4] of 1200 ng·h/mL and an AUC(0-t) at 10 h [28] of 14200 ng·h/mL. For the same compound, the Tmax [29] was 5 min, the bioavailability [30] was 9% and the half-life [31] was 115 min. It also gave a clearance [32] of 23.3 mL/min/kg, an AUC(0-inf) [33] of 14200 ng·h/mL and a Tmax [21] of 120 min. It also gave an AUC(0-inf) [34] of 1300 ng·h/mL, a Cmax [25] of 561 ng/mL and a Vd [35] of 3.88 L/kg. The Cmax [36] was 40800 ng/mL, the k el at 10 h [37] was 0.000257 s⁻¹ and the half-life [38] was 44.9 min.
With `CN(CCCNC(=O)Nc1ccc(C(C)(C)C)cc1)C[C@H]1C[C@@H](c2cnn3c(N)ccnc23)[C@H](O)[C@@H]1O` the IC50 [26] was greater than 10 µM.
In the case of `CN(CCCNC(=O)Nc1ccccc1)C[C@H]1C[C@@H](c2ccc3c(N)ncnn23)[C@@H](O)[C@@H]1O`, the deltaG [39] is reported as 3.82 kcal/mol.
`CC(C)N(CCCNC(=O)NC12CC3CC(CC(C3)C1)C2)C[C@H]1C[C@@H](c2ccc3c(N)ncnn23)[C@H](O)[C@@H]1O` gave an IC50 [26] greater than 10 µM.
`CN(CCCNC(=O)Nc1ccccc1)C[C@H]1C[C@@](O)(c2ccc3c(N)ncnn23)[C@H](O)[C@@H]1O` showed a deltaG [39] of 3.35 kcal/mol.
With `CN(CCCNC(=O)Nc1ccc(C(C)(C)C)cc1)C[C@H]1C[C@@H](c2ccc3c(N)ncnn23)[C@H](O)[C@@H]1O` (stereo in doubt; (+)-25) the deltaG [39] was -0.239 kcal/mol.
